Experimental data published in patent US20230263459A1, “DEVICE AND METHOD FOR PREVENTING SUDDEN DEATH AND PROTECTING OXYGEN STATUS DURING SEIZURE ACTIVITY” (priority 2020, published 2023).
“Also recorded” adds a separate entry of the source. Structures can show the parent of a compound that is named as a salt. Where two headings read alike, the source gives them in different places.

Key:
[1] = test system: rat model of complete airway occlusion; details: for number of breath attempts during occlusion: FIG. 7D, hydrochloride; for time to respiratory arrest (mean): air control 53.6
Method: Adult male Sprague Dawley rats (AGE median=63, mean=88 days; WEIGHT median=306, mean=329 grams; Envigo Chicago, Ill.) were housed in AAALAC-accredited facilities and maintained on a 12 hour light:dark cycle with a temperature of 23° C. and humidity of 55%, monitored daily, and had unrestricted access to water and food. Urethane (1.5 g/kg ip) was used for anesthesia in all animals.
ECG RECORDINGS—Limb-lead ECG was recorded using copper strips coated with conductive gel wrapped around both forelimbs and the base of the tail. Signals were amplified and filtered to pass 1 Hz to 1 kHz (Model 1800 AC amplifier with headstages; A-M Systems, Sequim, Wash.) and digitized at 2 kHz (Microl401 controlled by Spike 2 software; Cambridge Electronic Design, Cambridge, UK). Rhythm was assessed by reviewing P waves and associated QRS complexes for variations in wave shape, beat-to-beat intervals, and atrial-ventricular coupling.
The raw pulsatile waveform of the pulse oximeter was digitized (2 kHz) with other signals.
INSPIRATORY AIRWAY PRESSURES—A pressure transducer (CyQ, Columbus Instruments, Columbus, Ohio) was connected to the sidearm of a T-shaped tracheal tube (see infra). Inspiratory pressures during complete airway occlusion were measured relative to those observed during baseline breathing. Signals were digitized along with other signals recorded at the same time.
TRACHEAL IMPLANTS—A T-shaped tracheal tube was placed through an incision between cartilaginous rings of the trachea after the trachea was exposed in the neck. The distal arm was “sealed” in the trachea with suture around the trachea, compressing it against the outside wall of the implant.
CONTROLLED AIRWAY OCCLUSION—Obstructive apnea was produced with controlled airway occlusion. The exterior arm in the straight path with the implanted arm served breathing or could be occluded. A pressure transducer on the tracheal tube sidearm recorded forces developed during either normal breathing with the tracheal tube open to the atmosphere or during complete closure of the open port.
Injected volumes were 12.5 ml/kg and averaged 4.25 f 1.00 ml/animal (mean, standard deviation). Fluoxetine hydrochloride (cat #1279804) was obtained from Sigma Aldrich Inc. (St. Louis, Mo.).
Gas was delivered at ˜4 liters/min. In all animals, the occlusion was left in place until 10 seconds after the point of respiratory arrest, which was defined as the time of the peak of the last breath attempt.

[2] = test system: audiogenic seizure prone mice; details: cited from earlier work
[3] = test system: audiogenic seizure-prone mice; details: oxygen, FIG. 3
From the text: In audiogenic seizure-prone mice, seizures are stereotyped and consist of a running phase, a clonic phase, and a tonic phase that included hindlimb extension.

[4] = fluoxetine 25 mg/kg IP vs saline

In the case of CNCCC(Oc1ccc(C(F)(F)F)cc1)c1ccccc1 (centres unmarked) [fluoxetine, Fluoxetine hydrochloride], the “attempts needed to effect resuscitation after respiratory arrest” value ([1]; SSRI group vs saline, bolus gas delivery) is reported as “required more attempts on average”, the “increase in the time to respiratory arrest” value (from here on “increase in the time”) ([1]; fluoxetine 25 mg/kg IP one hour post-injection vs saline) is reported as 28% and the “rate of desaturation during occlusion” value [1, 4] is reported as “did not significantly alter”. For the same compound, the “inspiratory forces generated during breath attempts while occluded” value ([1]; fluoxetine 25 mg/kg IP vs saline, FIG. 7B) was “no apparent differences”, the “number of breath attempts during occlusion” value [1, 4] was “no difference” and the “number of breath attempts during occlusion” value ([1]; fluoxetine 25 mg/kg IP vs saline, listed as Fluoxetine) was “nearly equivalent”. For the same compound, the respiratory rate ([1]; fluoxetine 25 mg/kg IP vs saline, FIGS. 7E, 7F) was “significantly slowed”, the “time to respiratory arrest (average)” value ([1]; fluoxetine 25 mg/kg IP, 60 min before occlusion, n=8, saline control 49.8/49.9) was 63.8 s and the minimum oxygen saturation ([1]; fluoxetine 25 mg/kg IP, saline group 37%, not statistically significant) was 34%. For the same compound, the protection against death ([2]; multiple strains of audiogenic seizure prone mice (Faingold 2011, 2014; Zeng 2015)) was “protect against death”.

In the case of O=O [oxygen], the “time in tonic hindlimb extension phase” value [3] is reported as “unchanged”, the “time to respiratory arrest” value [3] is reported as “prolonged” and the total seizure time [3] is reported as “unchanged”. For the same compound, the “increase in the time” value ([1]; 50% oxygen/50% air 30 seconds prior to occlusion vs air) was 19%, the “time to respiratory arrest (mean)” value ([1]; 50% oxygen/50% air for 30 seconds prior to airway occlusion, n=7) was 63.9 s and the “number of breath attempts” value ([1]; 50% oxygen/50% air for 30 seconds vs air) was “significantly increased”. The “delay in desaturation onset” value ([1]; animals breathing oxygen versus air, FIG. 1C) was roughly 40 s, the “increase in the time” value ([1]; oxygen 30 seconds prior to occlusion vs air) was 52% and the “increase in the time” value ([1]; oxygen 5 minutes prior to occlusion vs air) was 65%. For the same compound, the “minimum pulse oximetry level” value ([1]; oxygen animals, n=12, mean, standard deviation) was 37%±11, the “time to respiratory arrest (mean)” value ([1]; oxygen atmosphere for 5 minutes prior to airway occlusion) was 88.4 s and the “time to respiratory arrest relative to room air” value ([1]; oxygen enriched atmosphere vs room air, FIG. 1A) was “nearly doubled; also recorded: nearly twice as long”. The “total number of breath attempts during complete airway closure” value ([1]; oxygen prior to occlusion vs air, FIG. 1D) was “significantly greater”, the “time to respiratory arrest (mean)” value ([1]; oxygen stream for only 30 seconds prior to airway occlusion (brief O2), n=10) was 81.6 s and the “duration of sustained high level of oxygen saturation before decline” value ([1]; oxygen-breathing rat, pulse oximetry, FIGS. 2A-2B) was “about 30 seconds”. For the same compound, the “time of last breath attempt (respiratory arrest) after occlusion onset” value ([1]; single animal, FIG. 2A, oxygen for five minutes before occlusion, air animal 53) was 100 s, the “onset of ST segment elevation, bradycardia and premature ventricular contractions post-occlusion” value ([1]; single animal, FIG. 2A, oxygen for five minutes before occlusion, air animal about 40) was “about 80 seconds” and the “protection from normally fatal audiogenic seizures” value ([2]; DBA/2 mice, seizures in an oxygen atmosphere (Venit 2004; Willott 1976)) was “protected”. The survival of animals ([2]; oxygen treatment (Venit 2004; Willott 1976)) was 100%.
